How the values were obtained:
Type in all cases: cell-based
[1] = test system: Colorectal carcinoma HCT116 cells; test: HCT116 + ETR1 cell death assay (MTT, 72 hours); details: with HGS ETR1 40 ng/ml
Experimental: Colorectal carcinoma HCT116 cells were cultured as monolayers in 96 well plates at a density of 2000 cells per well in McCoy's 5a medium (HyClone) supplemented with 2.2 g/L sodium bicarbonate (Gibco), 10% FBS (HyClone) and 1% penecillin/streptomycin (HyClone). 24 hours later, triplicate wells were treated with HGS ETR1 (40 ng/ml) in combination with compound. Cells were incubated in the presence of compound and HGS agonistic Trail receptor antibody, ETR1 (Mapatumamab, 40 ng/ml) for 72 hours. Metabolic viability of remaining cells was assessed by MTT (thiazolyl blue tetrazolium bromide, Sigma) assay.
(§1) EC50 values (50% cell survival in the presence of compound as compared to untreated controls) were calculated from survival curves using BioAssay software (CambridgeSoft, HCT116 and SKOV3 SAR) and GraphPad Prism (Graph Pad Software Inc., Synoviocyte SAR).

[2] = test system: Rheumatoid arthritis human fibroblast-like synoviocytes (HFLS-RA); test: Synoviocytes + Fas antibody cell survival assay (Cell Titer-Glo); details: with 300 ng/ml anti-human CD95 (Fas) antibody CH-11, 72 hours, read-out: EC50 synoviocyctes + FAS
Experimental: Rheumatoid arthritis human fibroblast-like synoviocytes (HFLS-RA, Cell Applications Inc.) were seeded in 96-well plates at 3000 cells per well in complete synoviocyte growth medium (Cell Applications Inc.) one day prior to treatment. Triplicate wells were treated for 72 hours compound in combination with 300 ng/ml anti-human CD95 (Fas) antibody (clone CH-11, Beckman Coulter/Immunotech). Cell survival was measured by Cell Titer-Glo Luminescent Assay (Promega).
as §1

[3] = test system: Ovarian adenocarcinoma SKOV3 cells; test: SKOV3 cell death assay (MTT, 72 hours); details: Homo sapiens, SK-OV-3, compound alone
Experimental: Ovarian adenocarcinoma SKOV3 cells were cultured as monolayers in McCoy's 5a medium (HyClone) supplemented with 2.2 g/L sodium bicarbonate (Gibco), 10% FBS (HyClone) and 1% penicillin/streptomycin (HyClone). Cells were seeded in 96 well plates at 5000 cells/well. After 24 hours in culture, cells were treated with compound. Cells were incubated in the presence of compound for 72 hours. Metabolic viability of remaining cells was assessed by MTT (thiazolyl blue tetrazolium bromide, Sigma) assay.
as §1

Structure (SMILES) | EC50 [1] [nM] | EC50 [2] [nM] | EC50 [3] [nM]
CN[C@@H](C)C(=O)N[C@H](C(=O)N1CCC[C@H]1CN(CCc1ccccc1)C(=O)c1csc(-c2ccc(-c3nc(C(=O)N(CCc4ccccc4)C[C@@H]4CCCN4C(=O)[C@@H](NC(=O)[C@H](C)NC)C4CCCCC4)cs3)cc2)n1)C1CCCCC1 [Compound 34] | < 100 | – | –
CN[C@@H](C)C(=O)N[C@H](C(=O)N1CCC[C@H]1CN(CCc1ccccc1)C(=O)CN(C)C(=O)c1ccc(-c2ccc(C(=O)N(C)CC(=O)N(CCc3ccccc3)C[C@@H]3CCCN3C(=O)[C@@H](NC(=O)[C@H](C)NC)C3CCCCC3)cc2)cc1)C1CCCCC1 [Compound 32] | < 100 | – | –
CN[C@@H](C)C(=O)N[C@H](C(=O)N1CCC[C@H]1CN(CCc1ccccc1)C(=O)c1ccc(-c2ccc(C(=O)N(CCc3ccccc3)C[C@@H]3CCCN3C(=O)[C@@H](NC(=O)[C@H](C)NC)C3CCOCC3)cc2)cc1)C1CCOCC1 [Compound 27] | < 100 | – | –
CN[C@@H](C)C(=O)N[C@H](C(=O)N1CCC[C@H]1CN(CCc1ccc(F)cc1)S(=O)(=O)c1ccc2cc(S(=O)(=O)N(CCc3ccc(F)cc3)C[C@@H]3CCCN3C(=O)[C@@H](NC(=O)[C@H](C)NC)C3CCCCC3)ccc2c1)C1CCCCC1 [Compound 28] | < 100 | – | –
CN[C@@H](C)C(=O)N[C@H](C(=O)N1CCC[C@H]1CN(C(=O)CNC(=O)c1ccc(-c2ccc(C(=O)NCC(=O)N(C[C@@H]3CCCN3C(=O)[C@@H](NC(=O)[C@H](C)NC)C3CCCCC3)C3Cc4ccccc4C3)cc2)cc1)C1Cc2ccccc2C1)C1CCCCC1 [Compound 15] | < 100 | – | –
CCN[C@@H](C)C(=O)N[C@H](C(=O)N1CCC[C@H]1CN(CCc1ccccc1)C(=O)c1ccc(-c2ccc(C(=O)N(CCc3ccccc3)C[C@@H]3CCCN3C(=O)[C@@H](NC(=O)[C@H](C)NCC)C3CCCCC3)cc2)cc1)C1CCCCC1 [Compound 37] | < 100 | – | –
CN[C@@H](C)C(=O)N[C@H](C(=O)N1CCC[C@H]1CN(CCc1ccccc1)C(=O)c1ccc2cc(C(=O)N(CCc3ccccc3)C[C@@H]3CCCN3C(=O)[C@@H](NC(=O)[C@H](C)NC)C3CC3)ccc2c1)C1CC1 [Compound 20] | < 100 | > 100 | –
CN[C@@H](C)C(=O)N[C@H](C(=O)N1CCC[C@H]1CN(CCc1ccc(OC)cc1)C(=O)CNC(=O)c1ccc(-c2ccc(C(=O)NCC(=O)N(CCc3ccc(OC)cc3)C[C@@H]3CCCN3C(=O)[C@@H](NC(=O)[C@H](C)NC)C3CCCCC3)cc2)cc1)C1CCCCC1 [Compound 14] | > 100 | – | –
CN[C@@H](C)C(=O)N[C@H](C(=O)N1CCC[C@H]1CN(CCc1ccccc1)C(=O)c1ccc2cc(C(=O)N(CCc3ccccc3)C[C@@H]3CCCN3C(=O)[C@@H](NC(=O)[C@H](C)NC)C3CCCCC3)ccc2c1)C1CCCCC1 [Compound 12] | < 100 | – | –
CN[C@@H](C)C(=O)N[C@H](C(=O)N1CCC[C@H]1CN(CCc1ccccc1)C(=O)[C@@H](C)NC(=O)c1ccc(-c2ccc(C(=O)N[C@H](C)C(=O)N(CCc3ccccc3)C[C@@H]3CCCN3C(=O)[C@@H](NC(=O)[C@H](C)NC)C3CCCCC3)cc2)cc1)C1CCCCC1 [Compound 31] | < 100 | – | –
CN[C@@H](C)C(=O)N[C@H](C(=O)N1CCC[C@H]1CN(CCc1ccccc1)C(=O)c1ccc2cc(C(=O)N(CCc3ccccc3)C[C@@H]3CCCN3C(=O)[C@@H](NC(=O)[C@H](C)NC)c3ccccc3)ccc2c1)c1ccccc1 [Compound 24] | < 100 | – | –
CN[C@@H](C)C(=O)N[C@H](C(=O)N1CCC[C@H]1CN(CCc1ccc(F)cc1)C(=O)c1ccc(C(=O)N(CCc2ccc(F)cc2)C[C@@H]2CCCN2C(=O)[C@@H](NC(=O)[C@H](C)NC)C2CCCCC2)cc1)C1CCCCC1 [Compound 5] | < 100 | – | < 100
CN[C@@H](C)C(=O)N[C@H](C(=O)N1CCC[C@H]1CN(CCc1ccccc1)C(=O)[C@H](C)NC(=O)c1ccc(-c2ccc(C(=O)N[C@@H](C)C(=O)N(CCc3ccccc3)C[C@@H]3CCCN3C(=O)[C@@H](NC(=O)[C@H](C)NC)C3CCCCC3)cc2)cc1)C1CCCCC1 [Compound 33] | < 100 | – | –
CN[C@@H](C)C(=O)N[C@H](C(=O)N1CCC[C@H]1CN(CCc1ccccc1)C(=O)c1ccc2cc(C(=O)N(CCc3ccccc3)C[C@@H]3CCCN3C(=O)[C@@H](NC(=O)[C@H](C)NC)C3CCOCC3)ccc2c1)C1CCOCC1 [Compound 26] | < 100 | – | –
CN[C@@H](C)C(=O)N[C@H](C(=O)N1CCC[C@H]1CN(CCc1ccccc1)C(=O)c1ccc(-c2ccc(C(=O)N(CCc3ccccc3)C[C@@H]3CCCN3C(=O)[C@@H](NC(=O)[C@H](C)NC)C3CCCCC3)cn2)nc1)C1CCCCC1 [Compound 30] | < 100 | – | –
CN[C@@H](C)C(=O)N[C@H](C(=O)N1CCC[C@H]1CN(CCc1ccccc1)C(=O)CNC(=O)C1CCC(C(=O)NCC(=O)N(CCc2ccccc2)C[C@@H]2CCCN2C(=O)[C@@H](NC(=O)[C@H](C)NC)C2CCCCC2)CC1)C1CCCCC1 (stereo partly shown) [Compound 4] | < 100 | – | < 100
CN[C@@H](C)C(=O)N[C@H](C(=O)N1CCC[C@H]1CN(CCc1ccccc1)C(=O)CNC(=O)c1ccc(C(=O)NCC(=O)N(CCc2ccccc2)C[C@@H]2CCCN2C(=O)[C@@H](NC(=O)[C@H](C)NC)C2CCCCC2)cc1)C1CCCCC1 [Compound 1] | < 100 | – | < 100
CN[C@@H](C)C(=O)N[C@H](C(=O)N1CCC[C@H]1CN(CCc1ccc(OC)cc1)C(=O)c1ccc2cc(C(=O)N(CCc3ccc(OC)cc3)C[C@@H]3CCCN3C(=O)[C@@H](NC(=O)[C@H](C)NC)C3CCCCC3)ccc2c1)C1CCCCC1 [Compound 13] | > 100 | – | –
CN[C@@H](C)C(=O)N[C@H](C(=O)N1CCC[C@H]1CN(CCc1ccc(F)cc1)C(=O)CNC(=O)c1ccc(C(=O)NCC(=O)N(CCc2ccc(F)cc2)C[C@@H]2CCCN2C(=O)[C@@H](NC(=O)[C@H](C)NC)C2CCCCC2)cc1)C1CCCCC1 [Compound 7] | < 100 | – | < 100
CN[C@@H](C)C(=O)N[C@H](C(=O)N1CCC[C@H]1CN(CCc1ccc(F)cc1)C(=O)CNC(=O)c1ccc2cc(C(=O)NCC(=O)N(CCc3ccc(F)cc3)C[C@@H]3CCCN3C(=O)[C@@H](NC(=O)[C@H](C)NC)C3CCCCC3)ccc2c1)C1CCCCC1 [Compound 9] | < 100 | – | < 100
CN[C@@H](C)C(=O)N[C@H](C(=O)N1CCC[C@H]1CN(CCc1ccccc1)C(=O)c1ccc(-c2ccc(C(=O)N(CCc3ccccc3)C[C@@H]3CCCN3C(=O)[C@@H](NC(=O)[C@H](C)NC)c3ccccc3)cc2)cc1)c1ccccc1 [Compound 25] | < 100 | – | –
CN[C@@H](C)C(=O)N[C@H](C(=O)N1CCC[C@H]1CN(CCc1ccccc1)C(=O)CNC(=O)c1ccc2cc(C(=O)NCC(=O)N(CCc3ccccc3)C[C@@H]3CCCN3C(=O)[C@@H](NC(=O)[C@H](C)NC)C3CCCCC3)ccc2c1)C1CCCCC1 [Compound 3] | < 100 | – | < 100
CN[C@H](C(=O)N[C@H](C(=O)N1CCC[C@H]1CN(CCc1ccccc1)C(=O)c1ccc(-c2ccc(C(=O)N(CCc3ccccc3)C[C@@H]3CCCN3C(=O)[C@@H](NC(=O)[C@@H](NC)C3CC3)C3CCCCC3)cc2)cc1)C1CCCCC1)C1CC1 [Compound 36] | < 100 | – | –
CN[C@@H](C)C(=O)N[C@H](C(=O)N1CCC[C@H]1CN(CCc1ccccc1)C(=O)c1ccc2cc(C(=O)N(CCc3ccccc3)C[C@@H]3CCCN3C(=O)[C@@H](NC(=O)[C@H](C)NC)C3CCCC3)ccc2c1)C1CCCC1 [Compound 16] | < 100 | – | < 100
CN[C@@H](C)C(=O)N[C@H](C(=O)N1CCC[C@H]1CN(CCc1ccc(F)cc1)C(=O)CNC(=O)C1CCC(C(=O)NCC(=O)N(CCc2ccc(F)cc2)C[C@@H]2CCCN2C(=O)[C@@H](NC(=O)[C@H](C)NC)C2CCCCC2)CC1)C1CCCCC1 (stereo partly shown) [Compound 10] | < 100 | – | –
CC[C@H](NC)C(=O)N[C@H](C(=O)N1CCC[C@H]1CN(CCc1ccccc1)C(=O)c1ccc(-c2ccc(C(=O)N(CCc3ccccc3)C[C@@H]3CCCN3C(=O)[C@@H](NC(=O)[C@H](CC)NC)C3CCCCC3)cc2)cc1)C1CCCCC1 [Compound 39] | < 100 | – | –
CCCN[C@@H](C)C(=O)N[C@H](C(=O)N1CCC[C@H]1CN(CCc1ccccc1)C(=O)c1ccc(-c2ccc(C(=O)N(CCc3ccccc3)C[C@@H]3CCCN3C(=O)[C@@H](NC(=O)[C@H](C)NCCC)C3CCCCC3)cc2)cc1)C1CCCCC1 [Compound 38] | < 100 | – | –
CN[C@@H](C)C(=O)N[C@H](C(=O)N1CCC[C@H]1CN(CCc1ccccc1)C(=O)c1csc(-c2ccc(-c3ccc(-c4nc(C(=O)N(CCc5ccccc5)C[C@@H]5CCCN5C(=O)[C@@H](NC(=O)[C@H](C)NC)C5CCCCC5)cs4)cc3)cc2)n1)C1CCCCC1 [Compound 35] | < 100 | – | –
CN[C@@H](C)C(=O)N[C@H](C(=O)N1CCC[C@H]1CN(CCc1ccccc1)C(=O)CNC(=O)c1ccc(-c2ccc(C(=O)NCC(=O)N(CCc3ccccc3)C[C@@H]3CCCN3C(=O)[C@@H](NC(=O)[C@H](C)NC)C3CCCCC3)cn2)nc1)C1CCCCC1 [Compound 29] | < 100 | – | –

From patent US20110171171A1, “BRIDGED SECONDARY AMINES AND USE THEREOF AS IAP BIR DOMAIN BINDING COMPOUNDS” (Aegera Therapeutics, Inc., priority 2008, published 2011)
